Results on three molecules are retold here after ChEMBL document CHEMBL2375306, “Antimicrobial peptides containing unnatural amino acid exhibit potent bactericidal activity against ESKAPE pathogens” (Bioorg Med Chem, 2013).

SMILES strings stand for the structures. In brackets after ≈: the same amount, converted by molar mass. Square brackets hold non-standard residues; d marks the D form. Peptide text beside a SMILES is read from it. * marks the point of attachment. ξ: configuration not given here. Pro(3ξ,4ξ-(CH2)4) = O=C(O)[C@H]1NCC2CCCCC21; Pro(3,4-benzo) = O=C(O)[C@H]1NCc2ccccc21; Tic = O=C(O)[C@@H]1Cc2ccccc2CN1; X5 = CC(=O)NC(=O)[C@H](CCCCN)N*; βAla = NCCC(=O)O

What all share (assay type): functional
One experiment has as its system Enterococcus faecium. Description: Antibacterial activity against Enterococcus faecium MMC4 after 24 hrs by broth microdilution method. To be noted: MMC4, 24 h. Background: Dilution methods test growth across graded concentrations, often in twofold steps.
The subject of the next experiment is Acinetobacter baumannii. Kind of experiment: Antibacterial activity against Acinetobacter baumannii WRAIR clinical isolate 13 after 24 hrs by broth microdilution method. To be noted: WRAIR clinical isolate 13, 24 h.
In the next experiment the test system is Staphylococcus aureus. Kind of experiment: Antibacterial activity against methicillin-sensitive Staphylococcus aureus UAMS-1 after 24 hrs by broth microdilution method. To be noted: UAMS-1, 24 h.
Another experiment has as its system Klebsiella aerogenes. Description: Antibacterial activity against Enterobacter aerogenes after 24 hrs by broth microdilution method.
Another experiment has as its system Klebsiella pneumoniae. Kind of experiment: Antibacterial activity against Klebsiella pneumoniae BAMS clinical isolate 07-18 after 24 hrs by broth microdilution method. Particulars: BAMS clinical isolate 07-18, 24 h.
In another experiment the test system is Pseudomonas aeruginosa. Description: Antibacterial activity against Pseudomonas aeruginosa PAO1 after 24 hrs by broth microdilution method. Particulars: PAO1, 24 h.

On to `CC(=O)NCCC(=O)N[C@@H](Cc1ccccc1)C(=O)N1Cc2ccccc2C[C@H]1C(=O)N1CC2CCCCC2[C@H]1C(=O)NCCC(=O)N[C@@H](CCCCN)C(=O)N1Cc2ccccc2C[C@H]1C(=O)N1CC2CCCCC2[C@H]1C(=O)NCCC(=O)N[C@@H](Cc1ccccc1)C(=O)N1Cc2ccccc2C[C@H]1C(=O)N1CC2CCCCC2[C@H]1C(=O)NCCC(=O)N[C@@H](CCCCN)C(=O)N1Cc2ccccc2C[C@H]1C(=O)N[C@@H](CCCCN)C(=O)N[C@@H](CCCCN)C(=O)N[C@@H](CCCCN)C(=O)N[C@@H](CCCCN)C(=O)NC(C)=O` (stereo partly specified) (Ac-[βAla]F[Tic][Pro(3ξ,4ξ-(CH2)4)][βAla]K[Tic][Pro(3ξ,4ξ-(CH2)4)][βAla]F[Tic][Pro(3ξ,4ξ-(CH2)4)][βAla]K[Tic]KKK-X5), for which the MBC is 50 µg/mL (≈ 19.7 µM) in the experiment with Enterococcus faecium; 25 µg/mL (≈ 9.85 µM) against Acinetobacter baumannii; > 100 µg/mL against Staphylococcus aureus; > 100 µg/mL in the experiment on Klebsiella aerogenes; > 100 µg/mL in the experiment on Klebsiella pneumoniae; > 100 µg/mL in the experiment with Pseudomonas aeruginosa. Further, the MIC in the experiment on Enterococcus faecium was 25 µg/mL (≈ 9.85 µM); in the experiment on Acinetobacter baumannii, 12.5 µg/mL (≈ 4.92 µM); against Staphylococcus aureus it was > 100 µg/mL; against Klebsiella aerogenes it was > 100 µg/mL; against Klebsiella pneumoniae, > 100 µg/mL; in the experiment with Pseudomonas aeruginosa, > 100 µg/mL.
Consider `CC(C)C[C@H](NC(=O)[C@@H](N)CCCCN)C(=O)N1Cc2ccccc2C[C@H]1C(=O)N1CC2CCCCC2[C@H]1C(=O)NCC(=O)N[C@@H](CCCCN)C(=O)N1Cc2ccccc2C[C@H]1C(=O)N1CC2CCCCC2[C@H]1C(=O)N[C@@H](Cc1ccccc1)C(=O)N1Cc2ccccc2C[C@H]1C(=O)N1CC2CCCCC2[C@H]1C(=O)NCC(=O)N[C@@H](CCCCN)C(=O)N1Cc2ccccc2C[C@H]1C(=O)N1CC2CCCCC2[C@H]1C(=O)N[C@@H](Cc1ccccc1)C(=O)N1Cc2ccccc2C[C@H]1C(=O)N1CC2CCCCC2[C@H]1C(=O)NCC(=O)N[C@@H](CCCCN)C(=O)N1Cc2ccccc2C[C@H]1C(=O)N1CC2CCCCC2[C@H]1C(=O)N[C@@H](CCCCN)C(=O)N[C@@H](CCCCN)C(=O)N[C@@H](CCCCN)C(=O)N[C@@H](CCCCN)C(N)=O` (stereo partly specified) (H-KL[Tic][Pro(3ξ,4ξ-(CH2)4)]GK[Tic][Pro(3ξ,4ξ-(CH2)4)]F[Tic][Pro(3ξ,4ξ-(CH2)4)]GK[Tic][Pro(3ξ,4ξ-(CH2)4)]F[Tic][Pro(3ξ,4ξ-(CH2)4)]GK[Tic][Pro(3ξ,4ξ-(CH2)4)]KKKK-NH2), for which the MBC is 25 µg/mL (≈ 7.18 µM) in the experiment with Enterococcus faecium; 50 µg/mL (≈ 14.4 µM) in the experiment on Acinetobacter baumannii; 50 µg/mL (≈ 14.4 µM) against Staphylococcus aureus; > 100 µg/mL in the experiment with Klebsiella aerogenes; 100 µg/mL (≈ 28.7 µM) with Klebsiella pneumoniae; > 100 µg/mL in the experiment with Pseudomonas aeruginosa. For the same molecule, the MIC in the experiment on Enterococcus faecium was 6.25 µg/mL (≈ 1.79 µM); against Acinetobacter baumannii it was 12.5 µg/mL (≈ 3.59 µM); with Staphylococcus aureus it was 50 µg/mL (≈ 14.4 µM); against Klebsiella aerogenes it was > 100 µg/mL; in the experiment on Klebsiella pneumoniae it was > 100 µg/mL; with Pseudomonas aeruginosa it was > 100 µg/mL.
For the molecule `CC(=O)NCC(=O)N[C@@H](Cc1ccccc1)C(=O)N1Cc2ccccc2[C@H]1C(=O)N1CC2CCCCC2[C@H]1C(=O)NCC(=O)N[C@@H](CCCCN)C(=O)N1Cc2ccccc2[C@H]1C(=O)N1CC2CCCCC2[C@H]1C(=O)NCC(=O)N[C@@H](Cc1ccccc1)C(=O)N1Cc2ccccc2[C@H]1C(=O)N1CC2CCCCC2[C@H]1C(=O)NCC(=O)N[C@@H](CCCCN)C(=O)N1Cc2ccccc2C[C@H]1C(=O)N[C@@H](CCCCN)C(=O)N[C@@H](CCCCN)C(=O)N[C@@H](CCCCN)C(=O)N[C@@H](CCCCN)C(N)=O` (stereo partly specified) (Ac-GF[Pro(3,4-benzo)][Pro(3ξ,4ξ-(CH2)4)]GK[Pro(3,4-benzo)][Pro(3ξ,4ξ-(CH2)4)]GF[Pro(3,4-benzo)][Pro(3ξ,4ξ-(CH2)4)]GK[Tic]KKKK-NH2), the MBC against Enterococcus faecium was 100 µg/mL (≈ 41.7 µM); with Acinetobacter baumannii, 12.5 µg/mL (≈ 5.21 µM); with Staphylococcus aureus, > 100 µg/mL; in the experiment on Klebsiella aerogenes it was > 100 µg/mL; in the experiment with Klebsiella pneumoniae, > 100 µg/mL; in the experiment on Pseudomonas aeruginosa, > 100 µg/mL. Moreover, the MIC with Enterococcus faecium was 12.5 µg/mL (≈ 5.21 µM); against Acinetobacter baumannii it was 12.5 µg/mL (≈ 5.21 µM); against Staphylococcus aureus it was > 100 µg/mL; in the experiment with Klebsiella aerogenes, > 100 µg/mL; in the experiment with Klebsiella pneumoniae, > 100 µg/mL; in the experiment with Pseudomonas aeruginosa, > 100 µg/mL.

Usually MBC stands for the smallest concentration meeting the test's criterion for killing. Low values mean greater bactericidal potency, high ones weaker bactericidal potency. Usually MIC stands for the lowest concentration that inhibits growth of the organism. Lower therefore signals inhibition by little substance.
